Our source for the emission maximum values is the Deep4Chem optical property database.

The nature of this data set: solvent given as SMILES.

The compound `Oc1ccccc1/C=N/c1ccc(Cn2cncn2)cc1` had an emission maximum (in C1CCOC1) of 363.99 nm; an emission maximum (in C1COCCO1) of 324 nm; an emission maximum (in CC#N) of 428.01 nm; an emission maximum (in CC(C)=O) of 381 nm; an emission maximum (in CC(C)O) of 367 nm; an emission maximum (in CCCCCC) of 314 nm. Further, the emission maximum is, setting by setting: (in CCCCO) 368 nm; (in CCO) 407 nm; (in CCOC(C)=O) 357 nm; (in CCOCC) 346 nm; (in CN(C)C=O) 397.99 nm; (in CO) 430 nm. Further, the emission maximum worked out at 437.01 nm (in CS(C)=O), 326 nm (in Cc1ccccc1) and 363 nm (in ClCCl).

Regarding `O=C1c2cccc3c(-n4c5ccccc5c5ccccc54)ccc(c23)C(=O)N1c1ccccc1`, the emission maximum is, setting by setting: (in C1CCOC1) 546 nm; (in CCCCCC) 443 nm; (in ClC(Cl)Cl) 495 nm; (in ClCCl) 568 nm.

`COc1ccc(OC)cc1` displayed an emission maximum (in C1CCCCC1) of 323.21 nm.

As for `CC(C)(C)c1cc2c3cc(C(C)(C)C)c(-c4cc5cc6c7cccc8cccc(c9cc(C(C)(C)C)cc(c5cc4C(C)(C)C)c96)c87)cc3cc3c4cccc5cccc(c(c1)c23)c54`, where the note is “in CC1CCCCC1”, the emission maximum is recorded as 454 nm.

As to `CCCCN(CCCC)c1ccc2c(c1)C#CC#Cc1cc(N(CCCC)CCCC)ccc1C#Cc1cc(c3cc1C#Cc1ccc(C(F)(F)F)cc1C#CC#Cc1cc(C(F)(F)F)ccc1C#C3)C#C2`, the emission maximum reads like this: (in ClCCl) 551 nm; (in c1ccccc1) 499 nm.

Under “in CCO”, `CC(C)(C)OC(=O)NC(Cc1ccccc1)C(=O)OCc1ccc2c3cccc4cccc(c5cccc1c52)c43` (configuration not stated) yielded an emission maximum of 447 nm.

For the setting “in ClC(Cl)Cl”, `C(#Cc1ccccc1)C(C#Cc1ccccc1)=Cc1ccc(C=C(C#Cc2ccccc2)C#Cc2ccccc2)s1` registered an emission maximum of 528 nm.

Turning to `CCOC(=O)CCOc1ccccc1C(c1c(C)[nH]c2ccccc12)c1c(C)[nH]c2ccccc12`, the emission maximum runs as follows: (in C1CCCCC1) 329 nm; (in CC#N) 340 nm; (in CO) 345 nm; (in O) 350 nm.

As for `F[B-]1(F)Oc2ccccc2-c2n(-c3ccc(C(F)(F)F)cc3)c(-c3ccccc3)c(-c3ccccc3)[n+]21`, the emission maximum (in C1CCOC1) is recorded as 390 nm.

Compound `CN1CCN(c2ccc3c4c(cccc24)C(=O)c2ccccc2-3)CC1` had an emission maximum (in C1CCCCC1) of 533 nm; an emission maximum (in C1CCOC1) of 593 nm; an emission maximum (in C1COCCO1) of 584 nm; an emission maximum (in CC1COC(=O)O1) of 619 nm; an emission maximum (in CC#N) of 619 nm; an emission maximum (in CC(C)=O) of 615 nm. The compound also yielded an emission maximum (in CCCCCCCCO) of 626 nm; an emission maximum (in CCCCCO) of 635 nm; an emission maximum (in CCCCO) of 632 nm; an emission maximum (in CCCO) of 637 nm; an emission maximum (in CCO) of 640 nm; an emission maximum (in CCOC(C)=O) of 595 nm. The emission maximum by setting is: (in CN(C)C=O) 621 nm; (in CO) 645 nm; (in CS(C)=O) 624 nm; (in Cc1ccccc1) 569 nm; (in ClC(Cl)Cl) 601 nm.

For the compound `N#Cc1c(N2CCCCC2)cc(-c2ccc3ccccc3c2)c2c1Cc1ccccc1-2`, under “in C1CCOC1”, the emission maximum is 465 nm.

As to `O=S1(=O)c2ccc(-c3ccc(N(c4ccccc4)c4ccccc4)cc3)cc2C2(c3ccccc3-c3ccccc32)c2cc(-c3ccc(N(c4ccccc4)c4ccccc4)cc3)ccc21`, the emission maximum stood at 477.11 nm (in CC(C)=O); 398.37 nm (in CCCCCC); 491.2 nm (in CN(C)C=O); 425.46 nm (in Cc1ccccc1); 465 nm (in ClCCl).

As for `CN(C)c1ccc2c(c1)C(C)(C)C1=CC(=[N+](C)C)C=CC1=C2`, the emission maximum came to 620 nm (in CO) and 621 nm (in O).

Consider `c1ccc2c(-n3cnc4ccccc43)cccc2c1`, for which the emission maximum was determined as 358 nm (in C1CCCCC1); 359 nm (in C1CCOC1); 362 nm (in CC#N); 360 nm (in CCO); 361 nm (in CCOC(C)=O); 361 nm (in CCOCC). Also, the emission maximum reads like this: (in CO) 360 nm; (in Cc1ccccc1) 359 nm; (in ClC(Cl)Cl) 362 nm.

On to `COCCOCCOCCOc1ccc(OCCOCCOCCOC)c(C=O)c1`, for which the emission maximum by setting is: (in CC(C)(C)O) 444 nm; (in CC(C)CO) 453 nm; (in CC(C)O) 455 nm; (in CCCCO) 458 nm; (in CCCO) 459 nm; (in CCO) 462 nm. The emission maximum worked out at 423 nm (in CN(C)C=O); 458 nm (in CNC=O); 468 nm (in CO); 463 nm (in NC=O); 485 nm (in O).

As for `c1ccc2c(c1)-c1ccccc1[Si]21c2ccccc2-c2cc3c(cc21)-c1ccccc1[Si]31c2ccccc2-c2ccccc21`, the emission maximum (in ClCCl) came to 408 nm.

Turning to `CC(C)(C)c1ccc2c(c1)c1cc(C(C)(C)C)ccc1n2-c1cccc2c1Oc1c(-c3nc(-c4ccccc4)nc(-c4ccccc4)n3)cccc1C2(C)C`, the emission maximum was 428 nm (in C1CCCCC1), 503 nm (in CC(C)=O), 451 nm (in Cc1ccccc1) and 489 nm (in ClC(Cl)Cl).

Under “in ClCCl”, `c1ccc2cc(-c3c4ccccc4c(-c4ccc(-c5ccc(-n6c7ccccc7c7ccccc76)cc5)cc4)c4ccccc34)ccc2c1` gave an emission maximum of 427 nm.

`CCOC(=O)c1c(-c2cc3cc(OC)ccc3oc2=O)nn(-c2cccc(Cl)c2)c1C(=O)OCC`: for the setting “in ClCCl”, the emission maximum is listed as 445 nm.

Take `CN(C)c1ccc(/C=C/c2cnc(/C=C/c3ccc(C#N)cc3)o2)cc1`: where the note is “in ClCCl”, the emission maximum was 640 nm.

On to `CN1/C(=C/C=C(/C=C/C2=[N+](C)c3ccccc3C2(C)C)c2ccc(C(F)(F)F)cc2)C(C)(C)c2ccccc21`, for which the emission maximum (in CCO) worked out at 665 nm, the emission maximum (in CO) is on record as 659 nm, the emission maximum (in CS(C)=O) amounted to 665 nm and the emission maximum (in O) worked out at 658 nm.

Turning to `CCCCCOc1cc2oc(=O)c3c4ccc(N)cc4c4ccc5cccc6c(c1)c2c3c4c56`, the emission maximum (in C1CCOC1) was 550 nm.

Under “in CCO”, `CCOC(=O)c1cc(C(=O)OCC)c2cc(N(C)C)ccc2n1` had an emission maximum of 564 nm.

On to `c1ccc(N(c2ccccc2)c2ccc(-c3ccc4c(c3)C3(c5cc(-c6ccc(N(c7ccccc7)c7ccccc7)cc6)ccc5S4)c4ccccc4-c4ccccc43)cc2)cc1`, for which the emission maximum by setting is: (in CC(C)=O) 414.99 nm; (in CCCCCC) 392.96 nm; (in CN(C)C=O) 421.13 nm; (in Cc1ccccc1) 398.74 nm; (in ClCCl) 410 nm.

`O=C1/C(=C2\Nc3cc4ccc5cccc6ccc(c3C2=O)c4c56)Nc2cc3ccc4cccc5ccc(c21)c3c45` had an emission maximum (in C1CCOC1) of 707 nm.

In the case of `CC(C)[Si](C#Cc1c2nsnc2c(C#C[Si](C(C)C)(C(C)C)C(C)C)c2nc3c(nc12)C1c2ccccc2C3c2ccccc21)(C(C)C)C(C)C`, for the setting “in CCCCCC”, the emission maximum amounted to 526 nm.

As for `N#CC1=C(N)n2c(=O)c3ccccc3c(=O)n2C1c1ccc([N+](=O)[O-])cc1` (configuration not stated), the emission maximum (in CS(C)=O) came out at 575 nm.

The compound `[O-][n+]1c(/C=C/c2ccc(/C=C/c3ccccc3)cc2)nc(N2CCOCC2)c2c1CCCC2` returned an emission maximum (in ClCCl) of 531 nm.

Take `c1ccc2c(c1)Cc1ccccc1N2c1c2ccccc2cc2ccccc12`: the emission maximum (in Cc1ccccc1) was 535 nm.

On to `Cc1nc2c(ccc3ccc(N(C)C)cc32)oc1=O`, for which the emission maximum (in c1ccccc1) is recorded as 564 nm.

`F[B-]1(F)OC(c2cccc(Br)c2)=Cc2c3ccccc3c3ccccc3[n+]21`: the emission maximum (in ClC(Cl)Cl) was 446 nm.

`CCCCCCN1C(=O)c2cccc3c(-c4ccc(OC)s4)ccc(c23)C1=O` returned an emission maximum (in ClC(Cl)Cl) of 503 nm.

Where the note is “in ClCCl”, `CCN(CC)c1ccc2c(c1)oc(=O)c1cc3c(-c4ccccc4)nn(-c4ccccc4)c3nc12` gave an emission maximum of 509 nm.

Consider `c1ccc2c(c1)CCc1ccccc1N2`, for which the emission maximum runs as follows: (in CC#N) 354 nm; (in CCCCCC) 329 nm; (in CO) 359 nm.

Regarding `CC(C)[Si](C#Cc1c2cc3ccccc3cc2c(C#Cc2ccc(C(F)(F)F)cc2)c2cc3ccccc3cc12)(C(C)C)C(C)C`, the emission maximum (in ClCCl) was 667 nm.

For `CN(C)c1ccc(/C=C/c2nc(/C=C/c3ccc(N(c4ccccc4)c4ccccc4)cc3)cc(/C=C/c3ccc(N(c4ccccc4)c4ccccc4)cc3)n2)cc1`, the emission maximum reads like this: (in C1CCOC1) 512 nm; (in CC#N) 574 nm; (in CC(C)=O) 552 nm; (in CCCCCCC) 460 nm; (in CS(C)=O) 577 nm; (in Cc1ccccc1) 495 nm. For the same compound, the emission maximum (in ClCCl) was 577 nm.

`[O-][n+]1c(/C=C/C=C/c2ccccc2)nc(N2CCOCC2)c2c1CCCC2`: the emission maximum (in ClCCl) came out at 546 nm.

Where the note is “in CO”, `COc1ccc(OC)c(C(C)=O)c1` yielded an emission maximum of 449 nm.

Where the note is “in O”, `Nc1ccc2ccc([O-])cc2c1` had an emission maximum of 407 nm.

`CCOC(=O)c1c(-c2c(Cl)c3cc(C)ccc3oc2=O)nn(-c2cccc(C)c2)c1C(=O)OCC` had an emission maximum (in ClCCl) of 418 nm.

On to `CCOC(=O)CN1C(=O)C2=C(c3ccc(C#N)cc3)N(CC(=O)OCC)C(=O)C2=C1c1ccc(C#N)cc1`, for which the emission maximum was found to be 549 nm (in CC#N), 557 nm (in CS(C)=O) and 558 nm (in Cc1ccccc1).

`CCCCOc1c(-c2ccc(N(c3ccccc3)c3ccccc3)cc2)cc2cc(-c3ccc(N(c4ccccc4)c4ccccc4)cc3)c(OCCCC)c3c4c(OCCCC)c(-c5ccc(N(c6ccccc6)c6ccccc6)cc5)cc5cc(-c6ccc(N(c7ccccc7)c7ccccc7)cc6)c(OCCCC)c(c1c23)c54` registered an emission maximum (in ClCCl) of 490 nm.
